Experimental findings from PMC11724075, “Small-molecule-induced ERBB4 activation to treat heart failure” (Nature Communications, 2025) are described below.

This assay relates to Erbb4-null mice. In words: AngII-treated Erbb4-null mice, echocardiography. In kind it is in vivo, mouse. Particulars: AngII/EF-1. An excerpt:
Floxed Erbb4 mice (Erbb4^f/f; C57BL/6N; 129-Erbb4tm1Fej/Mmucd, MMRRC, #010439-UCD) were crossed with CAGGCre-ER^TM mice (Jackson Laboratory, 004682) containing the Tg(CAG-cre/Esr1*)5Amc transgene that expresses Cre recombinase under the control of a chicken beta actin promoter/enhancer coupled to the human cytomegalovirus immediate-early gene enhancer, resulting in expression of tamoxifen-inducible Cre-ERT in most cell types. To induce Cre recombinase-mediated deletion of Erbb4, eleven-week-old female and male iCAGGCre-ER^TM/Erbb4^f/f mice were intraperitoneally injected with tamoxifen (Merck, T5648; 10 mg/kg; in corn oil) daily for 5 consecutive days.
Echocardiography was performed using the Vevo F2-LAZRX (FUJIFILM VisualSonics) and UHF57x probe. Mice were anesthetized with 1.5% isoflurane (Alvira, BE-V512222). Parasternal long-axis B-mode images and M-mode images were obtained and analyzed using VevoLAB software (FUJIFILM VisualSonics, Version 5.7.1). For the AngII experiments, measurements were obtained through analysis of the short-axis M-mode. For the MI experiments, measurements were obtained through analysis of the parasternal long-axis B-mode, of which the area and end-volume of the left ventricular cavity in diastole and systole were determined by tracing the endocardial border. Acquisitions, measurements and analyses were performed blinded.
Supplementary Table 2. Echocardiographic parameters. Echocardiographic parameters obtained through the analysis of the M-mode short-axis views. (a) Male and (b) female wild-type mice treated […]
mice in EF-1 group). (c) Male wild-type mice treated with AngII and NA-1 (n=5 male mice in Ctrl and AngII/Veh group, n=4 male mice in AngII/NA -1 group). (d) Comparison between wild-type and Erbb4-null mice (n=10 male and female wild -type mice and n=6 male and female Erbb4-null mice). (e) Male […]
Echocardiographic parameters were measured weekly
(indicated by ‘T’). All data are presented as mean (value of individual mice) ± SD, two-tailed unpaired […]
1 groups. Source data are provided as a Source Data file. AngII, angiotensin II; ANOVA, analysis of variance; Ctrl, control; DOX, doxorubicin; EF, ejection fraction; ERBB4, erythroblastic leukemia viral oncogene homolog 4; FS, fractional shortening; IVSd, interventricular septum thickness in diastole; IVSs, interventricular septum thickness in systole; LVIDd, left ventricular internal diameter in diastole; LVIDs, left ventricular internal diameter in systole; LVPWd, left ventricular posterior wall thickness in diastole; LVPWs, left ventricular posterior wall thickness in systole; MI, myocardial infarction; NA, non-activating pharmacophore-containing compound; SD, standard variation; Veh, vehicle.

[1] abbreviates: Male and female Erbb4-null mice.
Where [2] appears, read: male and female Erbb4-null mice, mean ± SD.

On to `O=C(NC1CC1)C(Sc1nc2ccccc2c(=O)n1C1CCCC1)c1ccccc1` (centres unmarked) [EF-1], for which, under setting [1], the FS amounted to 5.8 ± 3.5%, the IVSd amounted to 1.0 ± 0.3 mm, the IVSs stood at 1.2 ± 0.5 mm and the LVIDd came to 5.8 ± 0.3 mm. Further, under setting [1], the LVIDs came to 5.5 ± 0.5 mm, the LVPWd is given as 1.0 ± 0.4 mm and the LVPWs was 1.1 ± 0.4 mm. Also, under setting [2], the FS amounted to 5.8 ± 3.5%, the IVSd was found to be 1.0 ± 0.3 mm, the IVSs was found to be 1.2 ± 0.5 mm and the LVIDd is recorded as 5.8 ± 0.3 mm. Under setting [2], the LVIDs is 5.5 ± 0.5 mm, the LVPWd was 1.0 ± 0.4 mm and the LVPWs turned out to be 1.1 ± 0.4 mm.
